Literature values as cited in US7897820B2, “Process for preparing erianin” (Zhe Jiang Cell Biomedical Research Co., Ltd., priority 2005, dated 2011).

What was measured:
[1] = test system: microtubulin; conditions: target is the microtubulin in the cell
[2] = test system: tumor cell strain K256; conditions: among dihydrobibenzyls and phenanthrenes in Dendrobium chrysotoxum
[3] = test system: liver cancer of mouse
[4] = test system: human leukemia HL-60 cells
[5] = compared with 5FU

**Q.** For `COc1ccc(CCc2cc(OC)c(OC)c(OC)c2)cc1O` [Erianin, 2-methoxyl-5-[2-(3,4,5-trimethoxyphenyl)]ethyl phenol], which “effect on polymerizing of microtubulin” value [1] is on record?
**A.** inhibit the polymerizing of microtubulin

**Q.** What about the “inhibitory effect on the growth of tumor cell strain K256” value [2] of the same molecule?
**A.** most active

**Q.** What about the tumor inhibitory rate [3] of the same molecule?
**A.** 50.82%

**Q.** What about the “inhibition of growth of human leukemia HL-60 cells” value [4] of the same molecule?
**A.** significantly inhibited the growth

**Q.** And the side effect [5]?
**A.** far lower then 5FU
